Reference: patent US20110038835A1, “ANILIDES AND ANALOGS AS RHO KINASE INHIBITORS” (The Scripps Research Institute, priority 2007, published 2011)
pIC50: −log10 of the molar value.

Experiments:
[1] = target: ROCK-II (1-543) (UniProt Q62868); experiment: Enzymatic Rho kinase assay (Kinase-Glo, S6-peptide phosphorylation); format: biochemical; conditions: 20 μM ATP, 20 μM S6-peptide, 50 min at RT
Protocol: Enzymatic Rho Kinase (ROCK I and ROCK II) Assays.
The assay is based on ability of Rhok2 to phosphorylate a specific peptide sequence derived from its substrate—ribosomal protein S6 (amino acid residues 229-239). Rhok2 uses ATP as a donor of phosphate for the phosphorylation of the substrate, which leads to the depletion of ATP in the reaction mix. An assay kit (“Kinase-Glo”, Promega) was used to quantify enzyme activity. Using this kit, residual amounts of ATP are measured by a secondary enzymatic reaction, through which luciferase utilizes the remaining ATP to produce luminescence. Luminescent signal is directly proportional to ATP concentration and inversely proportional to Rhok2 activity.
This dose response assay was conducted in 1536 well plate format. Each concentration was tested nominally in triplicate. Protocol Summary: A 5 μL mixture of a 20 μM S6-peptide (LCB-[…]-NH2) and 20 μM ATP in Kinase buffer (50 mM Hepes pH 7.3, 10 mM MgCl2, 0.1% BSA, and 2 mM DTT) was added to the well of a plate. 20 nL of 90% DMSO/10% water containing the compound(s) to be tested (or no compound for control wells) was added. The reaction was initiated by addition of 5 μL of 8 nM ROCK-II (1-543) in Kinase buffer. […] The plate was read after 10 min incubation time at RT on the Viewlux in luminescence mode.

[2] = system: A7r5 cells; experiment: Myosin light chain double phosphorylation assay (ppMLC cell assay); format: cell-based; conditions: inhibitor 1 h, 10 μM LPA for 10 min
Protocol: Myosin Light Chain Double Phosphorylation Assays (ppMLC Cell Assay).
A7r5 cells were plated at 5000 cells/well in a 96 well Packard View Plate (Perkin Elmer) in DMEM +10% FBS. After attachment overnight, cells were serum starved for 4 h and treated with inhibitor in 0.25% DMSO final concentration for 1 h at 37° C. Cells were then treated with 10 μM lysophosphatitic acid (LPA) for 10 min. Following treatment, cells were immediately fixed with 4% paraformaldehyde for 30 minutes. After a brief wash in 0.1 M glycine, cells were permeablized in 0.2% Triton X for 10 minutes. Cells were then washed once in PBS and blocked in Li-COR blocking buffer (Li-COR Biosciences) for 1 h at 25 C. Cells were probed for either phosphorylated myosin light chain 20 (55 ng/mL), total myosin light chain (525 ng/mL) or anti-bovine α-tubulin (1 μg/mL), and incubated overnight at 4° C. Following three washes, cells were probed with goat-anti-rabbit or goat-anti-mouse IR800 (2 μg/mL in LI-COR block +0.025% Tween) for 1 h at 25° C. Nuclei were stained with TO-PRO-3 iodide (642/661) (1:4000) for 20 min, washed twice in PBS/0.05% Tween and read with an Odyssey Infrared Imaging System (LI-COR Biosciences).

[3] = system: N2a cells; experiment: Neurite length assay (N2a cell assay); format: cell-based; conditions: Mus musculus, compound 1 h, neurite retraction induced by 5 uM LPA
Protocol: Neurite Length Assay (N2a, Cell Assay).
N2a cells are maintained in DMEM/FBS at 37 C and 5% CO2. For the experiment the cells were plated on a poly-D-lysine coated 96-well tissue culture plate. After attachment, cell differentiation was induced for 2 days by addition of 10 uM retinoic acid. Cells were treated for 1 h with a dilution of compounds in 0.3% DMSO final concentration before neurite retraction was induced by 5 uM LPA. Cells were stained for tubulin and nuclei and images were acquired on a INCell 1000 workstation. Images were analyzed using the developer toolbox and neurite length was quantitated.

pIC50 [1]: 7.72
pIC50 [2]: 6.96
pIC50 [3]: 7.74
Compound: CN(C)CCOc1cc(-c2cn[nH]c2)c(F)cc1NC(=O)[C@H](N)c1ccc(F)cc1 [Example 26, (R)-2-amino-N-(2-(2-(dimethylamino)ethoxy)-5-fluoro-4-(1H-pyrazol-4-yl)phenyl)-2-(4-fluorophenyl)acetamide]
